Usually IC50 stands for the concentration that inhibits the measured activity by half.

Test [1] concerns human pleural mesothelioma cells NCI-H226. Description: Cell anti-proliferation experiment (CCK8), NCI-H226. The test is classed as cell-based. In short, it runs like this: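 Viability was measured by CCK-8 (3 h, A450) after 3-day treatment with 0.15–333.33 nM compound in 0.1% DMSO medium. Curve-fitted IC50 was based on viability normalised to no-drug and cell-free controls.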
A further test concerns YAP-TEAD. Kind of test: YAP-TEAD inhibitor activity by Nano luciferase method (8xGTiiC-nLuc reporter in 293T cells). To be noted: Homo sapiens, HEK-293T, 48 hours incubation, read-out: Nano-luciferase detection (IC50). The format is cell-based. The procedure, abridged:
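293T cells transiently transfected with pGL3B-8xGTiiC-nLuc-CMV-fLuc, seeded 2000 cells/well, then treated 48 h at 37 °C with compounds in 1:3.16 dilution series (top 10,000 nM). Nano luciferase signal read after cell lysis; IC50 from percent of 0 nM control.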

Take `CC(=O)Nc1ccc2c(c1)c1nn(C)cc1c(=O)n2-c1ccc(C(F)(F)F)cc1` [Example T-175]: the IC50 (in test [1]; with YAP-TEAD) was no more than 1000 nM in each case.
Consider `CN(C)C/C=C/C(=O)Nc1ccc2c(c1)c1nn(C)cc1c(=O)n2-c1ccc(C(F)(F)F)cc1` [Example T-176], for which the IC50 (in test [1]; with YAP-TEAD) was no more than 1000 nM in each case.
For the compound `Cn1cc2c(=O)n(-c3ccc(C(F)(F)F)cc3)c3ccc(NC(=O)/C=C/CN4CCCCC4)cc3c2n1` [Example T-177], the IC50 (in test [1]; with YAP-TEAD) was no more than 1000 nM throughout.
Turning to `Cn1cc2c(=O)n(-c3ccc(C(F)(F)F)cc3)c3ccc(NC(=O)/C=C/CN4CCOCC4)cc3c2n1` [Example T-178], the 50% inhibitory concentration (IC50) (in test [1]; in the test with YAP-TEAD) was no more than 1000 nM in each case.
For the compound `Cn1cc2c(=O)n(-c3ccc(C(F)(F)F)cc3)c3ccc(NC(=O)/C=C/CN4CCCC4)cc3c2n1` [Example T-179], the IC50 (in test [1]; in the test with YAP-TEAD) was no more than 1000 nM each time.
With `COC(=O)Nc1ccc2c(c1)c1nn(C)cc1c(=O)n2-c1ccc(C(F)(F)F)cc1` [Example T-180], the IC50 (in test [1]; in the test with YAP-TEAD) was no more than 1000 nM throughout.
Consider `CNC(=O)Nc1ccc2c(c1)c1nn(C)cc1c(=O)n2-c1ccc(C(F)(F)F)cc1` [Example T-181], for which the IC50 (in test [1]; in the test on YAP-TEAD) was no more than 1000 nM in each case.
As for `CN(C)C(=O)Nc1ccc2c(c1)c1nn(C)cc1c(=O)n2-c1ccc(C(F)(F)F)cc1` [Example T-182], the IC50 (in test [1]; in the test on YAP-TEAD) was no more than 1000 nM throughout.
Regarding `Cn1cc2c(=O)n(-c3ccc(C(F)(F)F)cc3)c3ccc(NC(N)=O)cc3c2n1` [Example T-183], the IC50 (in test [1]; with YAP-TEAD) was no more than 1000 nM throughout.
In the case of `Cn1cc2c(=O)n(-c3ccc(C(F)(F)F)cc3)c3ccc(NC(=O)N4CCCC4)cc3c2n1` [Example T-184], the IC50 (in test [1]; with YAP-TEAD) was no more than 1000 nM throughout.
Take `Cn1cc2c(=O)n(-c3ccc(C(F)(F)F)cc3)c3ccc(NC(=O)N4CCCCC4)cc3c2n1` [Example T-185]: the IC50 (in test [1]; with YAP-TEAD) was no more than 1000 nM in each case.
For the compound `Cn1cc2c(=O)n(-c3ccc(C(F)(F)F)cc3)c3ccc(NS(=O)(=O)c4ccccc4)cc3c2n1` [Example T-186], the IC50 (in test [1]; with YAP-TEAD) was no more than 1000 nM in each case.
In the case of `Cn1cc2c(=O)n(-c3ccc(C(F)(F)F)cc3)c3ccc(NS(=O)(=O)c4ccc(F)cc4)cc3c2n1` [Example T-187], the IC50 (in test [1]; in the test with YAP-TEAD) was no more than 1000 nM in each case.
In the case of `CCS(=O)(=O)Nc1ccc2c(c1)c1nn(C)cc1c(=O)n2-c1ccc(C(F)(F)F)cc1` [Example T-188], the IC50 (in test [1]; in the test on YAP-TEAD) was no more than 1000 nM each time.
Consider `Cc1ccc(S(=O)(=O)Nc2ccc3c(c2)c2nn(C)cc2c(=O)n3-c2ccc(C(F)(F)F)cc2)cc1` [Example T-189], for which the IC50 (in test [1]; in the test on YAP-TEAD) was no more than 1000 nM throughout.
`Cn1cc2c(=O)n(-c3ccc(C(F)(F)F)cc3)c3ccc(NS(C)(=O)=O)cc3c2n1` [Example T-190]: the IC50 (in test [1]; with YAP-TEAD) was no more than 1000 nM each time.
As to `Cn1cc2c(=O)n(-c3ccc(C(F)(F)F)cc3)c3ccc(NS(=O)(=O)C(F)(F)F)cc3c2n1` [Example T-191], the IC50 (in test [1]; with YAP-TEAD) was no more than 1000 nM in each case.
`COCCOC(=O)Nc1ccc2c(c1)c1nn(C)cc1c(=O)n2-c1ccc(C(F)(F)F)cc1` [Example T-192]: the IC50 (in test [1]; in the test with YAP-TEAD) was no more than 1000 nM throughout.
As for `CCOC(=O)Nc1ccc2c(c1)c1nn(C)cc1c(=O)n2-c1ccc(C(F)(F)F)cc1` [Example T-193], the IC50 (in test [1]; in the test with YAP-TEAD) was no more than 1000 nM each time.
For `CC(C)OC(=O)Nc1ccc2c(c1)c1nn(C)cc1c(=O)n2-c1ccc(C(F)(F)F)cc1` [Example T-194], the IC50 (in test [1]; with YAP-TEAD) was no more than 1000 nM each time.
In the case of `CNS(=O)(=O)c1ccc2c(c1)c1c(cnn1C)c(=O)n2-c1ccc(C(F)(F)F)cc1` [Example T-195], the IC50 (in test [1]; in the test on YAP-TEAD) was 1000 to 5000 nM in each case.
With `CNS(=O)(=O)c1ccc2c(c1)c1ccccc1c(=O)n2-c1ccc(C(F)(F)F)cc1` [Example T-199], the IC50 (in test [1]; in the test with YAP-TEAD) was 1000 to 5000 nM each time.
In the case of `C[C@H](NC(=O)c1ccc2c(c1)c1nn(C)cc1c(=O)n2-c1ccc(S(F)(F)(F)(F)F)cc1)c1ccccn1` [Example T-227], the IC50 (in test [1]; in the test on YAP-TEAD) was no more than 1000 nM in each case.
Consider `C[C@H](NC(=O)c1ccc2c(c1)c1nn(C)cc1c(=O)n2-c1ccc(OC(F)(F)F)cc1)c1ccccn1` [Example T-229], for which the IC50 (in test [1]; with YAP-TEAD) was no more than 1000 nM throughout.
On to `C[C@H](NC(=O)c1ccc2c(c1)c1nn(C)cc1c(=O)n2-c1ccc(OC(F)(F)F)cc1)c1ccccc1` [Example T-230], for which the IC50 (in test [1]; in the test with YAP-TEAD) was no more than 1000 nM each time.
Regarding `C=CC(=O)Nc1ccc2c(c1)c1nn(C)cc1c(=O)n2-c1ccc(S(F)(F)(F)(F)F)cc1` [Example T-231], the concentration for half-maximal inhibition (IC50) (in test [1]; with YAP-TEAD) was no more than 1000 nM in each case.
Regarding `C=CC(=O)Nc1ccc2c(c1)c1nn(C)cc1c(=O)n2-c1ccc(OC(F)(F)F)cc1` [Example T-232], the IC50 (in test [1]; in the test on YAP-TEAD) was no more than 1000 nM in each case.
Turning to `CC(C)/C=C/C(=O)Nc1ccc2c(c1)c1nn(C)cc1c(=O)n2-c1ccc(C(F)(F)F)cc1` [Example T-233], the IC50 (in test [1]; in the test with YAP-TEAD) was no more than 1000 nM throughout.
`CC/C=C/C(=O)Nc1ccc2c(c1)c1nn(C)cc1c(=O)n2-c1ccc(C(F)(F)F)cc1` [Example T-234]: the IC50 (in test [1]; in the test with YAP-TEAD) was no more than 1000 nM in each case.
As for `C=C(F)C(=O)Nc1ccc2c(c1)c1nn(C)cc1c(=O)n2-c1ccc(C(F)(F)F)cc1` [Example T-235], the IC50 (in test [1]; in the test on YAP-TEAD) was no more than 1000 nM in each case.
As to `C=C(C)C(=O)Nc1ccc2c(c1)c1nn(C)cc1c(=O)n2-c1ccc(C(F)(F)F)cc1` [Example T-236], the IC50 (in test [1]; with YAP-TEAD) was no more than 1000 nM each time.
Turning to `C#CC(=O)Nc1ccc2c(c1)c1nn(C)cc1c(=O)n2-c1ccc(C(F)(F)F)cc1` [Example T-237], the IC50 (in test [1]; with YAP-TEAD) was no more than 1000 nM each time.
As for `CC#CC(=O)Nc1ccc2c(c1)c1nn(C)cc1c(=O)n2-c1ccc(C(F)(F)F)cc1` [Example T-238], the IC50 (in test [1]; in the test on YAP-TEAD) was no more than 1000 nM in each case.
Regarding `C/C=C/C(=O)Nc1ccc2c(c1)c1nn(C)cc1c(=O)n2-c1ccc(C(F)(F)F)cc1` [Example T-239], the IC50 (in test [1]; in the test on YAP-TEAD) was no more than 1000 nM each time.
On to `C=CC(=O)Nc1cnc2c(c1)c1cscc1c(=O)n2-c1ccc(C(F)(F)F)cc1` [Example T-240], for which the half-maximal inhibitory concentration (IC50) (in test [1]; with YAP-TEAD) was no more than 1000 nM in each case.
For `C=CC(=O)Nc1cnc2c(c1)c1nn(C)cc1c(=O)n2-c1ccc(C(F)(F)F)cc1` [Example T-241], the half-inhibitory concentration (IC50) (in test [1]; in the test with YAP-TEAD) was no more than 1000 nM in each case.
With `C=CC(=O)Nc1cnc2c(c1)c1ccccc1c(=O)n2-c1ccc(C(F)(F)F)cc1` [Example T-242], the IC50 (in test [1]; in the test with YAP-TEAD) was no more than 1000 nM throughout.
Regarding `C[C@H](NC(=O)c1cnc2c(c1)c1nn(C)cc1c(=O)n2-c1ccc(C(F)(F)F)cc1)c1ccccn1` [Example T-243], the IC50 (in test [1]; in the test with YAP-TEAD) was no more than 1000 nM throughout.

Values taken from US20250154105A1, “POLYCYCLIC COMPOUND AND USE THEREOF” (TYK MEDICINES, INC., priority 2021, published 2025).
